Experimental findings from ChEMBL document CHEMBL4364356, “Deuteration of BTZ043 Extends the Lifetime of Meisenheimer Intermediates to the Antituberculosis Nitroso Oxidation State” (ACS Med Chem Lett, 2019) are described below.

Data set [1] can be described thus: Prodrug conversion in THF/MeOH solution assessed as first order rate constant for protonated/deuterated metabolite (6HD) formation at 0.01 mmol treated with NaBH4 by UV-visible spectroscopic analysis. The data set is classed as ADME.
Data set [2] can be described thus: Prodrug conversion in THF/MeOH solution assessed as first order rate constant for deuterated metabolite (6D2) formation at 0.01 mmol treated with NaBD4 by UV-visible spectroscopic analysis. The class given is ADME.
Data set [3] in a line: Drug recovery in THF/MeOH solution measured after 3 days by 1H-NMR analysis. As to conditions: tested as the 2H-labelled form.
A short description of data set [4]: Prodrug conversion in THF/MeOH solution assessed as first order rate constant for protonated metabolite (6H2) formation at 0.01 mmol treated with NaBH4 by UV-visible spectroscopic analysis. The data set is classed as ADME.
Data set [5] concerns the target T1, Decaprenylphosphoryl-beta-D-ribose oxidase (Mycobacterium tuberculosis (strain ATCC 25618 / H37Rv)) (UniProt P9WJF1).
T1 sequence (whole entry): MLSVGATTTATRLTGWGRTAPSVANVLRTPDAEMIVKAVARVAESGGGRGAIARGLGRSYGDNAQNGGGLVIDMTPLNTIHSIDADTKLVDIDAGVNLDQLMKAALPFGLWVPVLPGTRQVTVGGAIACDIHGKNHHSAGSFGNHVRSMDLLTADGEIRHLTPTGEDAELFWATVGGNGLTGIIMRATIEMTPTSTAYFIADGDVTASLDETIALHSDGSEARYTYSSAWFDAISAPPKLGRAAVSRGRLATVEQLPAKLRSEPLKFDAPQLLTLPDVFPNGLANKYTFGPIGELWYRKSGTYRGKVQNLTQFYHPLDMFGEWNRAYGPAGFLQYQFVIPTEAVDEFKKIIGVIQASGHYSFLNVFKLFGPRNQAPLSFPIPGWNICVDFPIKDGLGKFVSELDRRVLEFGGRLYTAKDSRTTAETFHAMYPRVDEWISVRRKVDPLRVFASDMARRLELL
The data set is described as follows: Inhibition of DprE1 in Mycobacterium tuberculosis H37Rv assessed as reduction in bacterial growth at <0.004 uM measured in MABA media.

The target of data set [6] is T1, Decaprenylphosphoryl-beta-D-ribose oxidase (Mycobacterium tuberculosis (strain ATCC 25618 / H37Rv)). The data set is described as follows: Inhibition of DprE1 in Mycobacterium tuberculosis H37Rv assessed as reduction in bacterial growth at 0.02 to 0.03 uM measured in GAS medium.

SMILES strings stand for the structures. Activity calls are given as the source filed them. The calls are words filed in the database; no cut-off is given here.

`[2H]c1c(C(F)(F)F)c([2H])c2c(=O)nc(N3CCC4(CC3)OC[C@H](C)O4)sc2c1[N+](=O)[O-]`: the results for the K in data set [1] and in data set [2] were 2.8 ×10⁻⁵ /s and 1.2 ×10⁻⁵ /s, respectively.

In turn, `C[C@H]1COC2(CCN(c3nc(=O)c4cc(C(F)(F)F)cc([N+](=O)[O-])c4s3)CC2)O1` [BTZ-043] registered a Drug recovery in data set [3] of 95%. The K in data set [4] was determined as 5.6 ×10⁻⁵ /s. Besides, the inhibition result in data set [5], in data set [5] (tested as the 2H-labelled form), in data set [6] and in data set [6] (tested as the 2H-labelled form) was “Active” throughout.
